Laboratory results taken from patent EP4752152A1, “STEROID COMPOUND, AND PREPARATION METHOD THEREFOR AND USE THEREOF” (Cholesgen (Shanghai) Co.Ltd., priority 2023, dated 2025).
Where two headings read alike, the source gives them in different places.

Key:
[1] = system: Fatty Acid Synthase (FASN) gene; assay: Inhibition of FASN gene expression (qPCR) in Huh-7 cells; format: cell-based, human; settings: Huh-7 cells, starvation medium, 16 hours, qPCR, class symbols, read-out: FASN IC50
Method: Huh-7 cells (purchased from ATCC) were cultured in DMEM medium (containing 10% fetal bovine serum LONSERA S711-001S) at 37°C in a 5% CO2 incubator. After 24 hours, the original medium was aspirated and replaced with DMEM starvation medium (containing 5% lipoprotein deficient serum (LPDS), 2 µM lovastatin, and 10 µM mevalonate). The control group was treated with dimethyl sulfoxide (DMSO), while the compound treatment groups were treated with different concentrations of compounds. The highest concentration of the compound was 3000 nM, with 3-fold dilutions, totaling 5 concentrations. The cells were cultured for 16 hours. Cell lysis was performed, followed by reverse transcription from cells to cDNA, and qPCR was performed to detect the expression of the SREBP target gene Fatty Acid Synthase (FASN) gene (FASN gene forward primer sequence: 5'-[…]-3', reverse primer sequence: 5'-[…]-3'). The IC50 was calculated. The test data for each test compound were analyzed using Prism software (with the DMSO-treated group as the reference to calculate the compound inhibition rate, fitted using the Prism log(inhibitor) vs. responseVariable slope (four-parameter) model, calculation formula: Y = Bottom + (Top - Bottom)/(1 + 10^((LogIC50 - X) × HillSlope))), to obtain the IC50 parameters of the compounds. Table 4: Inhibition results of FASN gene expression by compounds from some examples

[2] = system: SREBP pathway; assay: SREBP luciferase reporter gene system (SRE-luciferase assay); format: cell-based, human; settings: Huh-7/SRE-luc cells, sterol-deficient medium, 0.01-10 µM
Summary of the method: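 Readout was SRE-driven luciferase normalised to GFP fluorescence in lysates of stably transfected Huh-7/SRE-luc hepatoma cells. Compounds (0.01, 0.03, 0.1, 0.3, 1.0, 3.0, 10 µM; DMSO control) were applied for 16 h in sterol-depleted medium with 2 µM lovastatin and 10 µM mevalonate; IC50 from variable-slope fit.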

Row | SMILES | IC50 ([1]; Homo sapiens, Huh-7, 16 h) | IC50 ([2]; Homo sapiens, Huh-7, 16 h) | IC50 [1] | IC50 ([2]; 16 hours)
1 | COc1cc(F)nc(F)c1[C@H](O)CCC[C@@H](C)[C@H]1CC[C@H]2[C@H]3[C@H](CC[C@]12C)[C@@]1(C)CC[C@H](O)[C@H](O)[C@@H]1CC3(F)F (single isomer, unassigned) [Compound 262] | < 0.2 µM | 0.017 µM |  | 
2 | C[C@H](CCCC(O)c1ccc2c(n1)OC(F)(F)O2)[C@H]1CC[C@H]2[C@H]3[C@H](CC[C@]12C)[C@@]1(C)CC[C@H](O)[C@H](O)[C@@H]1CC3(F)F (single isomer, unassigned) [Compound 266] |  |  | < 0.2 µM | 0.099 µM
3 | CCOc1nc(F)ccc1[C@@H](O)CCC[C@@H](C)[C@H]1CC[C@H]2[C@H]3[C@H](CC[C@]12C)[C@@]1(C)CC[C@H](O)[C@H](O)[C@@H]1CC3(F)F (single isomer, unassigned) [Compound 289] | < 0.2 µM | 0.342 µM |  | 
4 | C[C@H](CCCC(O)c1cccc2ncn(C)c12)[C@H]1CC[C@H]2[C@H]3[C@H](CC[C@]12C)[C@@]1(C)CC[C@H](O)[C@H](O)[C@@H]1CC3(F)F (single isomer, unassigned) [Compound 299, (1R,3aS,3bS,5aR,6R,7S,9aR,9bS,11aR)-4,4-difluoro-1-[(2R,6R)-6-hydroxy-6-(3-methylbenzo[d]imidazol-4-yl)hexan-2-yl]-9a,11a-dimethylhexadecahydro-1H-cyclopenta[1,2-a]phenanthrene-6,7-diol or (1R,3aS,3bS,5aR,6R,7S,9aR,9bS,11aR)-4,4-difluoro-1-[(2R,6S)-6-hydroxy-6-(3-methylbenzo[d]imidazol-4-yl)hexan-2-yl]-9a,11a-dimethylhexadecahydro-1H-cyclopenta[1,2-a]phenanthrene-6,7-diol] | < 0.2 µM | 0.033 µM |  | 
5 | COc1cccc(F)c1C(O)CCC[C@@H](C)[C@H]1CC[C@H]2[C@H]3[C@H](CC[C@]12C)[C@@]1(C)CC[C@H](O)C[C@@H]1CC3(F)F (single isomer, unassigned) [Compound 314] | 0.5 to 0.9 µM | 0.14 µM |  | 
6 | COc1cccc(F)c1C(O)CC[C@@H](C)[C@H]1CC[C@H]2[C@H]3[C@H](CC[C@]12C)[C@@]1(C)CC[C@H](O)[C@H](O)[C@@H]1CC3(F)F (single isomer, unassigned) [Compound 336] | < 0.2 µM | 0.31 µM |  | 
7 | C[C@H](CCCC(O)c1c(F)cccc1F)[C@H]1CC[C@H]2C3=C(F)CC4C[C@@H](O)CC[C@]4(C)[C@H]3CC[C@]12C (stereo in doubt) [Compound 82, (1R,3aR,7S,9aS,9bR,11aR)-1-[(2R)-6-(2,6-difluorophenyl)-6-hydroxyhexan-2-yl]-4-fluoro-9a,11a-dimethyl-2,3,3a,5,5a,6,7,8,9,9a,9b,10,11,11a-tetradecahydro-1H-cyclopenta[1,2-a]phenanthren-7-ol] | 0.2 to 0.5 µM | 0.357 µM |  | 
8 | COc1cc(F)cc(F)c1C(O)CCC[C@@H](C)[C@H]1CC[C@H]2C3CC[C@H]4[C@@H](O)[C@@H](O)CC[C@]4(C)[C@H]3CC[C@]12C (stereo in doubt) [Compound 104, (1R,3aS,5aR,6R,7S,9aR,9bS,11aR)-1-[(2R)-6-(2,4-Difluoro-6-methoxyphenyl)-6-hydroxyhexan-2-yl]-9a,11a-dimethylhexadecahydro-1H-cyclopenta[1,2-a]phenanthrene-6,7-diol] | 0.2 to 0.5 µM | 0.25 µM |  | 
9 | C[C@H](CCC[C@@H](O)c1nc2cnccc2n1C)[C@H]1CC[C@H]2[C@H]3[C@H](CC[C@]12C)[C@@]1(C)CC[C@H](O)[C@H](O)[C@@H]1CC3(F)F (stereo in doubt) [Compound 326, (1R,3aS,3bS,5aR,6R,7S,9aR,9bS,11aR)-4,4-difluoro-1-[(2R,6R)-6-hydroxy-6-(1-methylimidazo[5,4-c]pyridin-2-yl)hexan-2-yl]-9a,11a-dimethylhexadecahydro-1H-cyclopenta[1,2-a]phenanthrene-6,7-diol] | < 0.2 µM | 0.011 µM |  | 
10 | C[C@H](CCCC(O)c1cccnc1)[C@H]1CC[C@H]2[C@H]3[C@H](CC[C@]12C)[C@@]1(C)CC[C@H](O)[C@H](O)[C@@H]1CC3(F)F (stereo partly drawn) [Compound 54, (1R,3aS,3bS,5aR,6R,7S,9aR,9bS,11aR)-4,4-difluoro-1-[(2R)-6-hydroxy-6-(pyridin-3-yl)hexan-2-yl]-9a,11a-dimethylhexadecahydro-1H-cyclopenta[1,2-a]phenanthrene-6,7-diol] | 0.2 to 0.5 µM | 0.35 µM |  | 
11 | COc1ccc(C(O)CCC[C@@H](C)[C@H]2CC[C@H]3[C@H]4[C@H](CC[C@]23C)[C@@]2(C)CC[C@H](O)[C@H](O)[C@@H]2CC4(F)F)c(F)c1 (stereo partly drawn) [Compound 67, (1R,3aS,3bS,5aR,6R,7S,9aR,9bS,11aR)-4,4-difluoro-1-[(2R)-6-(2-fluoro-4-methoxyphenyl)-6-hydroxyhexan-2-yl]-9a,11a-dimethylhexadecahydro-1H-cyclopenta[1,2-a]phenanthrene-6,7-diol] | 0.2 to 0.5 µM | 0.203 µM |  | 
12 | COc1ccc(C(O)CCC[C@@H](C)[C@H]2CC[C@H]3C4=C(F)C[C@H]5[C@@H](O)[C@@H](O)CC[C@]5(C)[C@H]4CC[C@]23C)c(F)c1 (stereo partly drawn) [Compound 68, (1R,3aR,5aR,6R,7S,9aR,9bR,11aR)-4-fluoro-1-[(2R)-6-(2-fluoro-4-methoxyphenyl)-6-hydroxyhexan-2-yl]-9a,11a-dimethyl-2,3,3a,5,5a,6,7,8,9,9a,9b,10,11,11a-tetradecahydro-1H-cyclopenta[1,2-a]phenanthrene-6,7-diol] | 0.2 to 0.5 µM | 0.434 µM |  | 
13 | C[C@H](CCCC(O)c1c(F)cc(F)cc1F)[C@H]1CC[C@H]2[C@H]3[C@H](CC[C@]12C)[C@@]1(C)CC[C@H](O)[C@H](O)[C@@H]1CC3(F)F (stereo partly drawn) [Compound 69, (1R,3aS,3bS,5aR,6R,7S,9aR,9bS,11aR)-4,4-difluoro-1-[(2R)-6-hydroxy-6-(2,4,6-trifluorophenyl)hexan-2-yl]-9a,11a-dimethylhexadecahydro-1H-cyclopenta[1,2-a]phenanthrene-6,7-diol] | < 0.2 µM | 0.086 µM |  | 
14 | C[C@H](CCCC(O)c1ccccc1F)[C@H]1CC[C@H]2C3=C(F)CC4C[C@@H](O)CC[C@]4(C)[C@H]3CC[C@]12C (stereo partly drawn) [Compound 75, (1R,3aR,7S,9aS,9bR,11aR)-4-fluoro-1-[(2R)-6-(2-fluorophenyl)-6-hydroxyhexan-2-yl]-9a,11a-dimethyl-2,3,3a,5,5a,6,7,8,9,9a,9b,10,11,11a-tetradecahydro-1H-cyclopenta[1,2-a]phenanthren-7-ol] | < 0.2 µM | 0.37 µM |  | 
15 | COc1ncccc1C(O)CCC[C@@H](C)[C@H]1CC[C@H]2C3=C(F)C[C@H]4[C@@H](O)[C@@H](O)CC[C@]4(C)[C@H]3CC[C@]12C (some centres unmarked) [Compound 83] | 0.2 to 0.5 µM | 0.092 µM |  | 
16 | C[C@H](CCCC(O)c1nccs1)[C@H]1CC[C@H]2[C@H]3[C@H](CC[C@]12C)[C@@]1(C)CC[C@H](O)[C@H](O)[C@@H]1CC3(F)F (stereo partly drawn) [Compound 89, (1R,3aS,3bS,5aR,6R,7S,9aR,9bS,11aR)-4,4-difluoro-1-[(2R)-6-hydroxy-6-(1,3-thiazol-2-yl)hexan-2-yl]-9a,11a-dimethylhexadecahydro-1H-cyclopenta[1,2-a]phenanthrene-6,7-diol] | < 0.2 µM | 0.183 µM |  | 
17 | C[C@H](CCC[C@@H](O)c1ccccn1)[C@H]1CC[C@H]2[C@H]3[C@H](CC[C@]12C)[C@@]1(C)CC[C@H](O)[C@H](O)[C@@H]1CC3(F)F [Compound 92, (1R,3aS,3bS,5aR,6R,7S,9aR,9bS,11aR)-4,4-difluoro-1-[(2R,6R)-6-hydroxy-6-(pyridin-2-yl)hexan-2-yl]-9a,11a-dimethylhexadecahydro-1H-cyclopenta[1,2-a]phenanthrene-6,7-diol] | < 0.2 µM | 0.371 µM |  | 
18 | C[C@H](CCC(=O)N(C)c1ccccc1F)[C@H]1CC[C@H]2[C@H]3[C@H](CC[C@]12C)[C@@]1(C)CC[C@H](O)[C@H](O)[C@@H]1CC3(F)F [Compound 95, (4R)-4-[(1R,3aS,3bS,5aR,6R,7S,9aR,9bS,11aR)-4,4-difluoro-6,7-dihydroxy-9a,11a-dimethylhexadecahydro-1H-cyclopenta[1,2-a]phenanthren-1-yl]-N-(2-fluorophenyl)-N-methylpentanamide] | < 0.2 µM | 0.08 µM |  | 
19 | C[C@H](CCCC(O)c1ccc(F)cc1)[C@H]1CC[C@H]2[C@H]3[C@H](CC[C@]12C)[C@@]1(C)CC[C@H](O)[C@H](O)[C@@H]1CC3(F)F (stereo partly drawn) [Compound 100, (1R,3aS,3bS,5aR,6R,7S,9aR,9bS,11aR)-4,4-difluoro-1-[(2R)-6-(4-fluorophenyl)-6-hydroxyhexan-2-yl]-9a,11a-dimethylhexadecahydro-1H-cyclopenta[1,2-a]phenanthrene-6,7-diol] | 0.2 to 0.5 µM | 0.179 µM |  | 
